Data published in patent US11191265B2, “Method of reducing crop damage” (Bayer CropScience Aktiengesellschaft, priority 2016, dated 2021).

Key:
Assay type in all cases: in vivo
[1] = test system: Wheat (winter wheat, TRZAW); assay: Method D: safener seed treatment, then pre-emergence herbicide plus safener tank mix, greenhouse pot test, crop damage scored visually; conditions: 21 days after pre-emergence application to the soil surface; herbicide 300 g/ha; safener (mefenpyr-diethyl) seed treatment 0.5 g/kg and 200 g/ha in tank mix where combined; vs untreated controls; mean of at least 3 replicates
Method: (§1) Wheat seeds (winter wheat, TRZAW) were placed in sandy loam soil in pots of a diameter of 7 cm, covered with soil and cultivated in a greenhouse under good growth conditions.
(§2) For the safener seed treatment, sufficient seeds were weighed into screw top glass bottles approximately twice the volume of the seeds.
(§3) The safener (mefenpyr-diethyl, formulated as wettable powder; WP) was weighed out so that the required rates (g a.i./kg seed) would be obtained, dissolved in water (1 ml water per 10 g of seeds), and added to the seeds to produce a slurry.
(§4) The bottles were capped and then placed in an overhead shaker (set at medium speed for up to 1 hour) so that the seeds were evenly coated with the slurry. The bottles were uncapped and the seeds were sown as described above.
The compounds were sprayed to the soil surface as an aqueous suspension at an equivalent water application rate of 300 l/ha with addition of 0.2% wetting agent (Agrotin).
(§5) The combination of herbicide and safener was applied as a tank mix.
(§6) After application, the test plants were kept in the greenhouse under good growth conditions.
(§7) Values in the table below are mean values from at least 3 replicates.

[2] = test system: Wheat (winter wheat, TRZAW); assay: Method A: safener seed treatment, then post-emergence herbicide, greenhouse pot test, crop damage scored visually; conditions: 20 days after post-emergence application at BBCH11; herbicide 300 g/ha; safener (mefenpyr-diethyl) seed treatment 0.5 g/kg where combined; vs untreated controls; mean of at least 3 replicates
Method: as §1, §2, §3, §4
Post-emergence application of the herbicide was done when the plants had reached growth stage BBCH11.
as §6, §7

[3] = test system: Wheat (winter wheat, TRZAW); assay: Prior-art method: post-emergence herbicide with or without safener in tank mix, greenhouse pot test, crop damage scored visually; conditions: 20 days after post-emergence application at BBCH11; herbicide 300 g/ha; safener (mefenpyr-diethyl) 200 g/ha in tank mix where combined; vs untreated controls; mean of at least 3 replicates
Description: 1. Method as Used in the Prior Art
as §1
Post-emergence application was done when the plants had reached growth stage BBCH11 (BBCH is the international coding system for the growth stage of crops and weeds).
(§8) The safener (mefenpyr-diethyl) was formulated as wettable powder (WP).
(§9) The compounds were sprayed onto the green parts of the plants as an aqueous suspension at an equivalent water application rate of 300 l/ha with addition of 0.2% wetting agent (Agrotin).
as §5, §6, §7

[4] = test system: Wheat (winter wheat, TRZAW); assay: Method C: safener seed treatment, then post-emergence herbicide plus safener tank mix, greenhouse pot test, crop damage scored visually; conditions: 20 days after post-emergence application at BBCH11; herbicide 300 g/ha; safener (mefenpyr-diethyl) seed treatment 0.5 g/kg and 200 g/ha in tank mix where combined; vs untreated controls; mean of at least 3 replicates
Method: as §1, §2, §3, §4
Post-emergence application was done when the plants had reached growth stage BBCH11.
as §8, §9, §5, §6, §7

Compound: CC1(C)CON(Cc2ccc(Cl)cc2Cl)C1=O [Herbicide post-em., 2-(2,4-dichlorophenyl)methyl-4,4-dimethyl-3-isoxazolidinone]
- % chlorosis [1]: 17%
- % growth depression [1]: 27%
- % chlorosis [2]: 40%
- % growth depression [2]: 40%
- % chlorosis [3]: 40%
- % growth depression [3]: 40%
- % chlorosis [4]: 40%
- % growth depression [4]: 40%
